Counter-ions that a name gives are not always drawn.
Key:
[1] = biological target: T1, human Serotonin 5-HT6 receptor (Homo sapiens, UniProt P50406); test: In vitro binding affinity for human 5-HT6 receptor ([3H]LSD, membranes of transfected HEK cells); conditions: human 5-HT6, [3H]Lysergic acid diethylamide 2 nM, HEK cell membranes; read-out: pIC50 Values (5-HT6) (converted)
T1 construct: expressed in transfected cells; host or cells: HEK cells
Experimental: D. Pharmacology In vitro Binding Affinity for Human 5-HT6 Receptor
Frozen membranes of human Serotonin 5-HT6 receptor-transfected HEK cells were thawed, briefly homogenized using an Ultra-Turrax T25 homogeniser and diluted in 50 mM Tris-HCl assay buffer containing 10 mM MgCl2, 1 mM EDTA and 10 μM Pargyline (adjusted to pH 7.4 with HCl) to an appropriate protein concentration optimized for specific and non-specific binding. Radioligand [^3H]Lysergic acid diethylamide (Perkin Elmer, specific activity ˜80 Ci/mmol) was diluted in assay buffer at a concentration of 20 nM. Radioligand (20 μl), along with 40 μl of either the 10% DMSO control, Methiothepine (10^−5M final concentration for measurement of non specific binding), or compound of interest, was then incubated with 70 μl of the prepared membrane solution and 70 μl of WGA (wheat germ agglutinin) coated PVT (polyvinyltoluidene) beads (0.25 mg/well final concentration). The final concentration of radioligand per well was 2 nM. After shaking for 24 h. at RT, plates were counted in a Topcount™ scintillation counter. Percentage specific binding and competition binding curves were calculated using S-Plus software (Insightful).

human H3 receptor [2] = biological target: T2, human H3 receptor (Homo sapiens, UniProt Q9Y5N1); test: In vitro binding assay for human H3 receptor (125I-iodoproxyfan, SK-N-MC cell membranes); conditions: iodoproxifan 1 nM, Ki converted from IC50
T2 construct: expressed in transfected cells
T2 sequence (Q9Y5N1 whole entry): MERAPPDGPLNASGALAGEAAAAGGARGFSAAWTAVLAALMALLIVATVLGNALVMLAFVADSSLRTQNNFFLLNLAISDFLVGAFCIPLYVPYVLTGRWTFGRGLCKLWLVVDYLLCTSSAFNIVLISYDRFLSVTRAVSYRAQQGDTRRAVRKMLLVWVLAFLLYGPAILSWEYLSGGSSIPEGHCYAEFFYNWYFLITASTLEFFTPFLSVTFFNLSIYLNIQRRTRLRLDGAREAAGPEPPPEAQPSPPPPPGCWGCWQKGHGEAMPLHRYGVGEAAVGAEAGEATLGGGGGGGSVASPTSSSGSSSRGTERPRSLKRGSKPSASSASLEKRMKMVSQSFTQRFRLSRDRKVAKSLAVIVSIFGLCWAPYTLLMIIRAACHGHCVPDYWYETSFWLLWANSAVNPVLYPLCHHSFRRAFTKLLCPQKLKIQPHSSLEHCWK
Experimental: In vitro Binding Assay for Human H3 Receptor
Briefly, cell pellets from SK-N-MC cells expressing the human H3 receptor were homogenized in 50 mM Tris-HCl/5 mM EDTA and recentrifuged at 30000 g for 30 min. Pellets were rehomogenized in 50 mM Tris/5 mM EDTA (pH 7.4). Membranes were incubated for 1 h at 25° C. with ^125I-iodoproxyfan diluted with cold iodoproxifan in 50 mM Tris-HCl/5 mM EDTA. The final total iodoproxifan concentration in the reactions is 1 nM. The cold iodoproxifan is included at 0.975 nM and the ^125I-iodoproxyfan is included at 0.025 nM final concentration. The reactions were terminated by filtration thru GF/B plates (pretreated with 0.3% polyethylenimine) on the cell harvester. The plates were washed 5 times with buffer. Nonspecific binding was defined in the presence of 100 μM histamine Inhibitory concentration (responsible for 50% inhibition of maximal effect, IC50) values were determined by a single site curve-fitting program (GraphPad, San Diego, Calif.) and converted to Ki values based on a ^125I-iodoproxyfan dissociation constant (Kd) of 1 nM.

human H3 receptor [3] = biological target: T2, human H3 receptor; conditions: used to convert IC50 to Ki, read-out: dissociation constant (Kd) of radioligand; cited from earlier work

T1 sequence (P50406 whole entry): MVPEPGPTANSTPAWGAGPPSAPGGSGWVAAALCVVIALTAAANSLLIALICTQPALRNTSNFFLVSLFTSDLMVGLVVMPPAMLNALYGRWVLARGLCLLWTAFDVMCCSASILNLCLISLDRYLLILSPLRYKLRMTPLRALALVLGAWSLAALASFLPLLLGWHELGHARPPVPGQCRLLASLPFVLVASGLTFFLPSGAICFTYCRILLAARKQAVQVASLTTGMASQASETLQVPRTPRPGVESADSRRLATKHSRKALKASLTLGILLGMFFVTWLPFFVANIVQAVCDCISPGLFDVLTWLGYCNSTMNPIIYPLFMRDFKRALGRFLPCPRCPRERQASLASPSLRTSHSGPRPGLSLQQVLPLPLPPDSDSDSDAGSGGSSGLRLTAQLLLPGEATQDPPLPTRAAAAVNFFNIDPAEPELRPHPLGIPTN

Compound | melting point [°C] | IC50 [1] [nM] | Ki (human H3 receptor [2]) [nM] | Kd (human H3 receptor [3]) [nM]
Fc1ccc(Nc2cc(N3CCNCC3)nnc2C(F)(F)F)cc1 (as salt: HCl) (hydrate or solvate) [Co. No. 16, N-(4-fluorophenyl)-6-(1-piperazinyl)-3-(trifluoromethyl)-4-pyridazinamine.2.5HCl .0.5H2O] | > 300 | – | – | –
OC(c1ccccc1)c1cc(N2CCNCC2)nnc1C(F)(F)F (stereo not drawn) (as salt: HCl) [Co. No. 5, alpha-phenyl-6-(1-piperazinyl)-3-(trifluoromethyl)-4-pyridazinemethanol] | 199.7 | – | – | –
FC(F)(F)c1nnc(N2CCN(Cc3ccncc3)CC2)cc1/C=C/c1ccccc1 (as salt: trifluoroacetate) [Co. No. 17, 4-[(E)-2-phenylethenyl]-6-[4-(4-pyridinylmethyl)-1-piperazinyl]-3-(trifluoromethyl)-pyridazine] | 163.9 | – | – | –
Fc1ccc(Oc2cc(N3CCNCC3)nnc2C(F)(F)F)cc1 [Co. No. 1, 4-(4-fluorophenoxy)-6-(1-piperazinyl)-3-(trifluoromethyl)-pyridazine] | 132.5 | 251 | 5000 | –
Fc1ccc(Nc2cc(N3CCNCC3)nnc2C(F)(F)F)cc1 [Co. No. 2, N-(4-fluorophenyl)-6-(1-piperazinyl)-3-(trifluoromethyl)-4-pyridazinamine] | – | 63.1 | – | –
FC(F)(F)c1nnc(N2CCNCC2)cc1Cc1ccccc1 [Co. No. 3, 4-(phenylmethyl)-6-(1-piperazinyl)-3-(trifluoromethyl)-pyridazine] | 133.8 | 126 | > 10000 | –
O=C(c1ccccc1)c1cc(N2CCNCC2)nnc1C(F)(F)F [Co. No. 4, phenyl[6-(1-piperazinyl)-3-(trifluoromethyl)-4-pyridazinyl]-methanone] | 289.5 | 126 | > 10000 | –
OC(c1ccccc1)c1cc(N2CCNCC2)nnc1C(F)(F)F (stereo not drawn) [Co. No. 5, alpha-phenyl-6-(1-piperazinyl)-3-(trifluoromethyl)-4-pyridazinemethanol] | – | 631 | > 10000 | –
O=S(=O)(c1ccccc1)c1cc(N2CCNCC2)nnc1C(F)(F)F [Co. No. 6, 4-(phenylsulfonyl)-6-(1-piperazinyl)-3-(trifluoromethyl)-pyridazine] | 180.3 | 251 | > 10000 | –
Fc1ccc(/C=C\c2cc(N3CCNCC3)nnc2C(F)(F)F)cc1 [Co. No. 7, 4-[(Z)-2-(4-fluorophenyl)ethenyl]-6-(1-piperazinyl)-3-(trifluoromethyl)-pyridazine] | – | 158 | > 10000 | –
Fc1ccc(/C=C/c2cc(N3CCNCC3)nnc2C(F)(F)F)cc1 [Co. No. 8, 4-[(E)-2-(4-fluorophenyl)ethenyl]-6-(1-piperazinyl)-3-(trifluoromethyl)-pyridazine] | 180.6 | 63.1 | > 10000 | –
Fc1ccc(C#Cc2cc(N3CCNCC3)nnc2C(F)(F)F)cc1 [Co. No. 9, 4-[(4-fluorophenyl)ethynyl]-6-(1-piperazinyl)-3-(trifluoromethyl)-pyridazine] | 251.6 | 1580 | > 10000 | –
CN1CCN(c2cc(/C=C/c3ccccc3)c(C(F)(F)F)nn2)CC1 [Co. No. 11, 6-(4-methyl-1-piperazinyl)-4-[(E)-2-phenylethenyl]-3-(trifluoromethyl)-pyridazine] | 135.8 | 398 | > 10000 | –
CN1CCN(c2cc(C(=O)c3ccccc3)c(C(F)(F)F)nn2)CC1 [Co. No. 13, [6-(4-methyl-1-piperazinyl)-3-(trifluoromethyl)-4-pyridazinyl]phenyl-methanone] | 136.3 | 158 | > 10000 | –
Fc1ccc(CNc2cc(N3CCNCC3)nnc2C(F)(F)F)cc1 [Co. No. 14, N-[(4-fluorophenyl)methyl]-6-(1-piperazinyl)-3-(trifluoromethyl)-4-pyridazinamine] | – | 631 | > 10000 | –
Fc1ccc(COc2cc(N3CCNCC3)nnc2C(F)(F)F)cc1 [Co. No. 15, 4-[(4-fluorophenyl)methoxy]-6-(1-piperazinyl)-3-(trifluoromethyl)-pyridazine] | 142.1 | 398 | > 10000 | –
Fc1ccc(Nc2cc(N3CCNCC3)nnc2C(F)(F)F)cc1 [Co. No. 16, N-(4-fluorophenyl)-6-(1-piperazinyl)-3-(trifluoromethyl)-4-pyridazinamine.2.5HCl .0.5H2O] | – | – | > 10000 | –
FC(F)(F)c1nnc(N2CCN(Cc3ccncc3)CC2)cc1/C=C/c1ccccc1 [Co. No. 17, 4-[(E)-2-phenylethenyl]-6-[4-(4-pyridinylmethyl)-1-piperazinyl]-3-(trifluoromethyl)-pyridazine] | – | 1260 | > 10000 | –
FC(F)(F)c1nnc(N2CCN(Cc3ccccn3)CC2)cc1/C=C/c1ccccc1 [Co. No. 18, 4-[(E)-2-phenylethenyl]-6-[4-(2-pyridinylmethyl)-1-piperazinyl]-3-(trifluoromethyl)-pyridazine] | 121.4 | 6310 | > 10000 | –
Ic1ccc(COCCCc2cnc[nH]2)cc1 [^125I-iodoproxyfan] | – | – | – | 1

— US8530474B2, “Substituted 6-(1-piperazinyl)-pyridazines as 5-HT6 receptor antagonists” (Janssen Pharmaceutica NV, priority 2008, dated 2013)
